Results on 42 compounds are retold here after patent US9765075B2, “Substituted bridged urea analogs as sirtuin modulators” (GLAXOSMITHKLINE LLC, priority 2013, dated 2017).

The experiment concerns the target T1, SIRT1 (Homo sapiens, UniProt Q96EB6).
T1 sequence (Q96EB6 1-747): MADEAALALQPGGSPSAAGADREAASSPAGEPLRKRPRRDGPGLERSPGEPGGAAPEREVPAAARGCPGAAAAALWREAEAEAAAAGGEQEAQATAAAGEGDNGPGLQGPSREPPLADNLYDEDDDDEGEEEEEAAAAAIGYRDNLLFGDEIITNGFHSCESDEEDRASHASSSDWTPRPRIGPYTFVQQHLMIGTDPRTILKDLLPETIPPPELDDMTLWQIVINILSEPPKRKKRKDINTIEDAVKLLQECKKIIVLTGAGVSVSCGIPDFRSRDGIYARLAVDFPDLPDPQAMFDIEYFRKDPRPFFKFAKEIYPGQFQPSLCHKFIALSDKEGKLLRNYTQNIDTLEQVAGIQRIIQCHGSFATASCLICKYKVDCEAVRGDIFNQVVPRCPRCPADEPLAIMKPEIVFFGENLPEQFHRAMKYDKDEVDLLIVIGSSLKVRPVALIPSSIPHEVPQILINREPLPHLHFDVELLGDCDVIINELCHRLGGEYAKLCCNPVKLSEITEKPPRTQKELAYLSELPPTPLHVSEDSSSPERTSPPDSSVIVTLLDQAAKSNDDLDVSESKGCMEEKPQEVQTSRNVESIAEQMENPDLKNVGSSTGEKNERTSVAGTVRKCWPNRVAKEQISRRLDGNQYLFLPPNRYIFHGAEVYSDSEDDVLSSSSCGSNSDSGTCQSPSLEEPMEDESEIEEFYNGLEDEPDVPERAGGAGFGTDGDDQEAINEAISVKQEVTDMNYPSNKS
As to the kind of experiment: Trp mass spectrometry assay (SIRT1 activation). The class given is biochemical. The note with it: for Emax: percent maximum fold activation of SIRT1, read-out: Tryp % Fold Act. An outline of the steps:
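N-His-tagged SIRT1 (10 nM), expressed in E. coli, was incubated with 0.5 μM Ac-RHKK(Ac)W-NH2 peptide and 120 μM NAD+ for 25 min at 25 °C in HEPES pH 7.5 with […]. The reaction was stopped with formic acid and O-acetyl-ADP-ribose or deacetylated peptide was quantified by mass spectrometry. Results are given as EC1.5 and percent maximal activation relative to DMSO control.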

Setting [1] is: Trp mass spectrometry assay, EC1.5 = concentration giving 150% activation of SIRT1.
[2] abbreviates: concentration of test compound that results in 150% activation of SIRT1, Trp peptide substrate.
Where [3] appears, read: Trp mass spectrometry assay, EC1.5 = concentration of test compound that results in 150% activation of SIRT1.

Each structure is given as a SMILES string. Where two headings read alike, the source gives them in different places. Bounds are passed on as bounds.

As for `O=C(Nc1cccc(-c2cnco2)c1)N1c2nc(N3CCCN(CC(F)(F)F)CC3)ccc2N2CC[C@H]1C2` [Example 741], the “Tryp AVG EC1.5 (μM)” value under setting [1] was “A (EC1.5<1 μM)”. For the same compound, the Emax (Trp mass spectrometry assay) is not below 150%. `O=C(Nc1ccc(F)cn1)N1c2nc(-c3cccc(C(F)(F)F)n3)ccc2N2CC[C@H]1C2` [Example 340]: the “Tryp AVG EC1.5 (μM)” value under setting [2] is on record as “B (EC1.5 1-25 μM)”. Also, the Emax (Trp peptide substrate) is not below 150%. For the compound `COc1cc(NC(=O)N2c3nc(-c4cccc(OC[C@@H](O)CO)c4)ccc3N3CC[C@H]2C3)ncn1` [Example 156], the “Tryp AVG EC1.5 (μM)” value under setting [3] is on record as “A (EC1.5<1 μM)”. The Emax (Trp mass spectrometry assay) was not below 150%. On the same counts, the results for `COc1cc(NC(=O)N2c3nc(-c4ccccc4C(F)(F)F)ccc3N3CC[C@H]2C3)ncn1` [Example 134] are “C (EC1.5>25 μM)” and less than 150%.

Consider `O=C(Nc1ccc(F)cn1)N1c2nc(-c3cccc(OC(F)(F)F)c3)ccc2N2CC[C@H]1C2` [Example 129], for which, under setting [3], the “Tryp AVG EC1.5 (μM)” value is given as “A (EC1.5<1 μM)”. Moreover, under “Trp mass spectrometry assay”, the Emax is not below 150%. For the compound `O=C(Nc1ccccn1)N1c2nc(-c3cccc(N4CC[C@@H](F)C4)c3)ccc2N2CC[C@H]1C2` [Example 279], the “Tryp AVG EC1.5 (μM)” value under setting [2] was “A (EC1.5<1 μM)”. For the same compound, where the note is “Trp peptide substrate”, the Emax is not below 150%. In the same order, the values of `O=C(Nc1cncc(F)c1)N1c2nc(N3CCCC(C(F)(F)F)C3)ccc2N2CCC[C@@H]1C2` (stereo partly drawn) [Example 304] are “B (EC1.5 1-25 μM)” and not below 150%.

Consider `CC(C)n1cc(-c2ccc3c(n2)N(C(=O)Nc2cccnc2)[C@H]2CCN3C2)cn1` [Example 494], for which, under setting [2], the “Tryp AVG EC1.5 (μM)” value was “B (EC1.5 1-25 μM)”. For the same compound, where the note is “Trp peptide substrate”, the Emax is not below 150%. In the case of `N#Cc1cc(-c2ccc3c(n2)N(C(=O)Nc2cnccn2)[C@H]2CCN3C2)ccc1F` [Example 419], under setting [2], the “Tryp AVG EC1.5 (μM)” value was “A (EC1.5<1 μM)”. Moreover, for the setting “Trp peptide substrate”, the Emax is not below 150%. In the same order, the values of `O=C(Nc1cnccn1)N1c2nc(-c3cccc(N4CC[C@@H](F)C4)c3)ccc2N2CC[C@H]1C2` [Example 267] are “B (EC1.5 1-25 μM)” and not below 150%.

As for `O=C(Nc1ccccn1)N1c2nc(-c3cncc(Cl)c3)ccc2N2CCC[C@H]1C2` [Example 406], the “Tryp AVG EC1.5 (μM)” value under setting [2] is reported as “A (EC1.5<1 μM)”. Under “Trp peptide substrate”, the Emax is not below 150%. On the same counts, the results for `Cc1ccc(-c2ccc(NC(=O)N3c4nc(-c5cccc(C(F)(F)F)c5)ccc4N4CC[C@H]3C4)cc2)o1` [Example 582] are “B (EC1.5 1-25 μM)” and not below 150%. Take `Cc1cc(OCC(O)CO)nc(NC(=O)N2c3nc(-c4cccc(Cl)c4)ccc3N3CC[C@H]2C3)n1` (stereo partly drawn) [Example 55]: the Emax (Trp mass spectrometry assay) was not below 150%.

With `COc1cc(NC(=O)N2c3nc(-c4ccnc(N5CC[C@H](F)C5)c4)ccc3N3CC[C@H]2C3)ncn1` [Example 437], the “Tryp AVG EC1.5 (μM)” value under setting [2] is reported as “B (EC1.5 1-25 μM)”. In addition, the Emax (Trp peptide substrate) was not below 150%.

In the case of `O=C(Nc1ccc(F)cn1)N1c2nc(-c3cccc(C(F)(F)F)c3)ccc2N2CCC[C@H]1C2` [Example 39], under “Trp mass spectrometry assay”, the Emax was not below 150%. On to `Cc1cncc(-c2ccc3c(n2)N(C(=O)Nc2cncc(F)c2)[C@H]2CCCN3C2)c1` [Example 509], for which the “Tryp AVG EC1.5 (μM)” value under setting [2] is “A (EC1.5<1 μM)”. Besides, the Emax (Trp peptide substrate) is not below 150%. Turning to `O=C(Nc1ccccn1)N1c2nc(-c3cccc(N4CCOCC4)c3)ccc2N2CCC[C@H]1C2` [Example 536], the “Tryp AVG EC1.5 (μM)” value under setting [2] is “B (EC1.5 1-25 μM)”. Moreover, the Emax (Trp peptide substrate) was not below 150%. On the same counts, the results for `Cc1cc(-c2ccc3c(n2)N(C(=O)Nc2cnc(OC[C@@H](O)CO)cn2)[C@H]2CCN3C2)ccn1` [Example 561] are “B (EC1.5 1-25 μM)” and not below 150%. For the compound `O=C(NCCCc1ccccn1)N1c2nc(-c3cccc(C(F)(F)F)c3)ccc2N2CC[C@H]1C2` [Example 673], the “Tryp AVG EC1.5 (μM)” value under setting [1] is recorded as “B (EC1.5 1-25 μM)”. Also, for the setting “Trp mass spectrometry assay”, the Emax was not below 150%. On the same counts, the results for `O=C(Nc1ccncn1)N1c2nc(-c3cccc(Cl)c3)ccc2N2C[C@@H](O)[C@H]1C2` [Example 684] are “B (EC1.5 1-25 μM)” and not below 150%. For the compound `O=C(Nc1cccc(-c2cnco2)n1)N1c2nc(-c3cccc(C(F)(F)F)c3)ccc2N2CCC[C@H]1C2` [Example 590], the “Tryp AVG EC1.5 (μM)” value under setting [2] is reported as “A (EC1.5<1 μM)”. For the setting “Trp peptide substrate”, the Emax is not below 150%. Regarding `COc1nccnc1NC(=O)N1c2nc(-c3ccnc(C)c3)ccc2N2CC[C@H]1C2` [Example 501], under setting [2], the “Tryp AVG EC1.5 (μM)” value was “B (EC1.5 1-25 μM)”. Further, under “Trp peptide substrate”, the Emax is not below 150%. In the same order, the values of `O=C(Nc1cnccn1)N1c2nc(-c3ccnc(N4CC[C@@H](F)C4)c3)ccc2N2CC[C@H]1C2` [Example 462] are “B (EC1.5 1-25 μM)” and not below 150%. As to `Cc1cccnc1NC(=O)N1c2nc(-c3cccc(C(F)(F)F)c3)ccc2N2CCC[C@H]1C2` [Example 35], for the setting “Trp mass spectrometry assay”, the Emax is not below 150%. On the same count and under the same terms, then `O=C(Nc1cccnc1)N1c2nc(-c3cccc(C(F)(F)F)c3)ccc2N2CC[C@H]1C2` [Example 17], with not below 150%. As to `O=C(Nc1nncs1)N1c2nc(-c3cccc(C(F)(F)F)c3)ccc2N2CC[C@H]1C2` [Example 646], the “Tryp AVG EC1.5 (μM)” value under setting [1] is listed as “A (EC1.5<1 μM)”. The Emax (Trp mass spectrometry assay) was not below 150%. With `O=C(Nc1cncc(F)c1)N1c2nc(-c3ccnc(N4CC[C@H](F)C4)c3)ccc2N2CC[C@H]1C2` [Example 475], under setting [2], the “Tryp AVG EC1.5 (μM)” value was “A (EC1.5<1 μM)”. Further, the Emax (Trp peptide substrate) was not below 150%. With `Cc1cc(NC(=O)N2c3nc(-c4cccc(C(F)(F)F)c4)ccc3N3CC[C@H]2C3)ccn1` [Example 61], the Emax (Trp mass spectrometry assay) is not below 150%. As for `O=C(Nc1ccccn1)N1c2nc(-c3cccc(N4CC[C@H](F)C4)c3)ccc2N2CC[C@H]1C2` [Example 280], the “Tryp AVG EC1.5 (μM)” value under setting [2] is reported as “A (EC1.5<1 μM)”. Besides, the Emax (Trp peptide substrate) was not below 150%. On to `O=C(Nc1ccc(N2CCCCC2)cc1)N1c2nc(-c3cccc(C(F)(F)F)c3)ccc2N2CC[C@H]1C2` [Example 628], for which the “Tryp AVG EC1.5 (μM)” value under setting [1] is reported as “B (EC1.5 1-25 μM)”. For the same compound, for the setting “Trp mass spectrometry assay”, the Emax is not below 150%.

`O=C(CCCC[C@@H]1SCC2NC(=O)NC21)NCCCCCC(=O)NCc1ccc(NC(=O)N2c3nc(-c4cccc(C(F)(F)F)c4)ccc3N3CCC[C@H]2C3)cc1` (stereo partly drawn) [Example 430]: the “Tryp AVG EC1.5 (μM)” value under setting [2] is recorded as “A (EC1.5<1 μM)”. For the same compound, the Emax (Trp peptide substrate) was not below 150%. On the same counts, the results for `NCc1ccc(NC(=O)N2c3nc(-c4cccc(C(F)(F)F)c4)ccc3N3CC[C@H]2C3)cc1` [Example 429] are “B (EC1.5 1-25 μM)” and not below 150%. On the same counts, the results for `Cc1cc(-c2ccc3c(n2)N(C(=O)Nc2ccccn2)[C@H]2CCN3C2)ccn1` [Example 220] are “A (EC1.5<1 μM)” and not below 150%. Take `Cc1nc(NC(=O)N2c3nc(-c4cccc(C(F)(F)F)c4)ccc3N3CCC2CC3)sc1C` [Example 173]: the “Tryp AVG EC1.5 (μM)” value under setting [3] was “A (EC1.5<1 μM)”. Under “Trp mass spectrometry assay”, the Emax was not below 150%. In the case of `Cn1cc(-c2ccc3c(n2)N(C(=O)Nc2ccccn2)[C@H]2CCN3C2)cn1` [Example 349], the “Tryp AVG EC1.5 (μM)” value under setting [2] is listed as “B (EC1.5 1-25 μM)”. For the same compound, the Emax (Trp peptide substrate) was not below 150%. As to `O=C(Nc1ccnc(O[C@H]2CCOC2)n1)N1c2nc(-c3cccc(C(F)(F)F)c3)ccc2N2CC[C@H]1C2` [Example 16], the Emax (Trp mass spectrometry assay) was not below 150%. Take `O=C(Nc1ccncn1)N1c2nc(N3CCCC(C(F)(F)F)C3)ccc2N2CCC[C@@H]1C2` (stereo partly drawn) [Example 308]: under setting [2], the “Tryp AVG EC1.5 (μM)” value is recorded as “C (EC1.5>25 μM)”. The Emax (Trp peptide substrate) was not below 150%. In the same order, the values of `O=C(Nc1cc(-c2cnco2)ccn1)N1c2nc(-c3cccc(C(F)(F)F)c3)ccc2N2CCC[C@H]1C2` [Example 591] are “A (EC1.5<1 μM)” and not below 150%. Regarding `C[C@@H](N)CS(=O)(=O)c1cccc(-c2ccc3c(n2)N(C(=O)Nc2cc(-c4ccnn4C)nc(-c4ccnn4C)c2)[C@H]2CCN3C2)c1` [Example 780], the “Tryp AVG EC1.5 (μM)” value under setting [1] is “A (EC1.5<1 μM)”. For the same compound, where the note is “Trp mass spectrometry assay”, the Emax was not below 150%. Turning to `Cc1csc(NC(=O)N2c3nc(N4CCCC(C(F)(F)F)C4)ccc3N3CC[C@H]2C3)n1` (stereo partly drawn) [Example 214], under setting [3], the “Tryp AVG EC1.5 (μM)” value is listed as “A (EC1.5<1 μM)”. The Emax (Trp mass spectrometry assay) is not below 150%. Take `Cc1ccncc1-c1ccc2c(n1)N(C(=O)Nc1ccccn1)[C@H]1CCCN2C1` [Example 505]: under setting [2], the “Tryp AVG EC1.5 (μM)” value was “C (EC1.5>25 μM)”. For the same compound, where the note is “Trp peptide substrate”, the Emax is less than 150%. On the same counts, the results for `O=C(Nc1cnccn1)N1c2nc(-c3ccnc(N4CCC(C(F)(F)F)C4)c3)ccc2N2CC[C@H]1C2` (stereo partly drawn) [Example 389] are “A (EC1.5<1 μM)” and not below 150%.
